Results taken from the supplement of paper PMC10307832.

Assays:
Experiment in all cases: relative viability (nuclei count vs DMSO), 5 days (fraction); higher = more cells survive
NVP-TAE684 + Foretinib = compound: COc1cc(N2CCC(N3CCN(C)CC3)CC2)ccc1Nc1ncc(Cl)c(Nc2ccccc2S(=O)(=O)C(C)C)n1 [NVP-TAE684] + COc1cc2c(Oc3ccc(NC(=O)C4(C(=O)Nc5ccc(F)cc5)CC4)cc3F)ccnc2cc1OCCCN1CCOCC1 [Foretinib] (partner 0.25 µM)
Summary of the method: (§1)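 The day after seeding in 1536-well plates, lung cancer cell lines were treated by pin tool with a single drug, or with a fixed anchor-drug dose together with five library-drug doses (not always all listed) in √10 steps. After 5 days, a combined fix-and-stain solution (final 0.05% Triton X-100, 1% formaldehyde, 1 ug/ml Hoechst) was added. Nuclei counted on 4× images gave relative viability as treated counts over vehicle counts, reported as the median of duplicate plates.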

CUDC-101 + AZD7762 = compound: C#Cc1cccc(Nc2ncnc3cc(OC)c(OCCCCCCC(=O)NO)cc23)c1 [CUDC-101] + NC(=O)Nc1cc(-c2cccc(F)c2)sc1C(=O)N[C@H]1CCCNC1 [AZD7762] (partner 0.2 µM)
Summary of the method: as §1

[1] = compound: C1=CC=C2C(=C1)N=C(S2)C(C#N)C3=NC(=NC=C3)NCCC4=CN=CC=C4 + CC1(C)CCC(c2ccc(Cl)cc2)=C(CN2CCN(c3ccc(C(=O)NS(=O)(=O)c4ccc(N[C@H](CCN5CCOCC5)CSc5ccccc5)c(S(=O)(=O)C(F)(F)F)c4)cc3)CC2)C1 [Navitoclax] (partner 0.5 µM)
Summary of the method: as §1

NVP-TAE684 + Phenformin = compound: COc1cc(N2CCC(N3CCN(C)CC3)CC2)ccc1Nc1ncc(Cl)c(Nc2ccccc2S(=O)(=O)C(C)C)n1 [NVP-TAE684] + N=C(N)NC(=N)NCCc1ccccc1 [Phenformin] (partner 250 µM)
Summary of the method: as §1

NVP-TAE684 + Luminespib = compound: COc1cc(N2CCC(N3CCN(C)CC3)CC2)ccc1Nc1ncc(Cl)c(Nc2ccccc2S(=O)(=O)C(C)C)n1 [NVP-TAE684] + CCNC(=O)c1noc(-c2cc(C(C)C)c(O)cc2O)c1-c1ccc(CN2CCOCC2)cc1 [Luminespib] (partner 0.01 µM)
Summary of the method: as §1

| Cell Line | relative viability (NVP-TAE684 + Foretinib; first compound 0.2 µM) | relative viability (NVP-TAE684 + Foretinib; first compound 0.6325 µM) | relative viability (NVP-TAE684 + Foretinib; first compound 2 µM) | relative viability (CUDC-101 + AZD7762; first compound 0.01 µM) | relative viability (CUDC-101 + AZD7762; first compound 0.03162 µM) | relative viability (CUDC-101 + AZD7762; first compound 0.1 µM) | relative viability (CUDC-101 + AZD7762; first compound 0.3162 µM) | relative viability (CUDC-101 + AZD7762; first compound 1 µM) | relative viability ([1]; first compound 0.005 µM) | relative viability ([1]; first compound 0.01581 µM) | relative viability ([1]; first compound 0.05 µM) | relative viability ([1]; first compound 0.1581 µM) | relative viability ([1]; first compound 0.5 µM) | relative viability (NVP-TAE684 + Phenformin; first compound 0.2 µM) | relative viability (NVP-TAE684 + Phenformin; first compound 0.6325 µM) | relative viability (NVP-TAE684 + Phenformin; first compound 2 µM) | relative viability (NVP-TAE684 + Luminespib; first compound 0.2 µM) | relative viability (NVP-TAE684 + Luminespib; first compound 0.6325 µM) | relative viability (NVP-TAE684 + Luminespib; first compound 2 µM) |
| --- | --- | --- | --- | --- | --- | --- | --- | --- | --- | --- | --- | --- | --- | --- | --- | --- | --- | --- | --- |
| HCC-78 | 0.539 | 0.539 | 0.382 | 0.66 | 0.531 | 0.603 | 0.355 | 0.323 | 0.454 | 0.774 | 0.623 | 0.912 | 0.818 | 0.658 | 0.442 | 0.422 |  |  |  |
| HCC-366 | 1.07 | 0.935 | 0.685 | 0.254 | 0.174 | 0.285 | 0.289 | 0.211 | 0.853 | 0.998 | 1.04 | 1.28 | 0.98 | 0.66 | 0.629 | 0.588 |  |  |  |
| IA-LM | 1.07 | 1.07 | 1.11 |  |  |  |  |  |  | 0.816 | 0.817 | 0.826 | 0.568 |  |  |  |  |  |  |
| LCLC-103H | 0.681 | 0.681 | 0.297 | 0.674 | 0.739 | 0.761 | 0.877 | 0.675 |  |  |  |  |  | 0.297 | 0.356 | 0.276 | 0.918 | 0.923 | 0.61 |
| NCI-H358 | 0.736 | 0.672 | 0.099 | 0.565 | 0.493 | 0.518 | 0.261 | 0.237 |  |  |  |  |  | 0.285 | 0.226 | 0.0829 | 0.25 | 0.337 | 0.115 |
| NCI-H520 | 0.712 | 0.979 | 0.51 |  |  |  |  |  | 0.929 | 1.25 | 1.03 | 1.26 | 1.19 | 0.553 | 0.451 | 0.242 | 0.189 | 0.219 | 0.219 |
| NCI-H522 |  |  |  | 0.932 | 0.753 | 0.791 | 0.75 | 0.689 |  |  |  |  |  | 0.685 | 0.777 | 0.608 | 0.925 | 1.28 | 1.02 |
| NCI-H650 | 0.983 | 1 | 0.753 | 1.25 | 0.835 | 1.03 | 0.968 | 0.848 |  |  |  |  |  | 0.462 | 0.371 | 0.325 | 0.776 | 0.682 | 0.489 |
| NCI-H661 | 1.19 | 1.05 | 0.779 |  |  |  |  |  |  |  |  |  |  | 0.275 | 0.272 | 0.242 | 1 | 0.883 |  |
| NCI-H1299 | 1.16 | 1.14 | 1.08 |  |  |  |  |  | 1.08 | 1.11 | 1.05 | 1.11 | 1.09 |  |  |  |  |  |  |
| NCI-H1563 | 0.914 | 0.88 | 0.696 |  |  |  |  |  |  |  |  |  |  | 0.662 | 0.645 | 0.53 | 0.542 | 0.548 | 0.407 |
| NCI-H1623 | 0.865 | 0.899 | 0.65 |  |  |  |  |  |  |  |  |  |  | 0.552 | 0.598 | 0.484 | 0.531 | 0.54 | 0.322 |
| NCI-H1648 |  |  |  | 0.846 | 0.566 | 0.646 | 0.45 | 0.361 |  |  |  |  |  |  |  |  |  |  |  |
| NCI-H1650 | 1.06 | 1.14 | 0.556 |  |  |  |  |  | 0.964 | 1.17 | 1.22 | 1.31 | 1.07 | 0.505 | 0.285 | 0.148 | 0.184 | 0.206 | 0.182 |
| NCI-H1703 | 0.388 | 0.325 | 0.331 | 0.141 | 0.117 | 0.11 | 0.116 | 0.125 | 1.01 | 1.04 | 1.02 | 1.14 | 1.02 |  |  |  |  |  |  |
| NCI-H1792 |  |  |  | 0.789 | 0.513 | 0.687 | 0.653 | 0.423 |  | 0.571 | 0.631 | 0.961 | 0.451 | 0.268 | 0.25 | 0.159 | 0.396 | 0.411 | 0.359 |
| NCI-H2009 | 1.07 | 1.14 | 1.09 |  |  |  |  |  | 1.13 | 1.17 | 1.14 | 1.22 | 1.21 | 0.47 | 0.458 | 0.328 | 0.925 | 1.05 | 0.944 |
| NCI-H2023 | 0.656 | 0.739 | 0.461 |  |  |  |  |  | 0.971 | 0.979 | 0.948 | 1.13 | 0.707 | 0.449 | 0.415 | 0.19 | 0.792 | 0.828 | 0.215 |
| NCI-H2228 | 0.445 | 0.238 | 0.123 |  |  |  |  |  | 0.915 | 1.39 | 0.827 | 0.997 | 0.954 | 0.23 | 0.158 | 0.113 | 0.142 | 0.116 | 0.0834 |
| NCI-H2342 | 1.07 | 1.06 | 0.545 | 0.507 | 0.459 | 0.51 | 0.407 | 0.353 |  |  |  |  |  | 0.532 | 0.614 | 0.361 | 0.742 | 0.845 | 0.647 |
| SK-LU-1 | 0.947 | 0.766 | 0.469 |  |  |  |  |  |  | 0.828 | 0.694 | 1.02 | 1.02 | 0.577 | 0.413 | 0.303 | 0.188 | 0.217 | 0.167 |
| SK-MES-1 | 0.597 | 1.12 | 0.774 |  |  |  |  |  | 1.76 | 1.19 | 1.3 | 1.28 | 1.02 | 0.642 | 0.686 | 0.453 | 0.842 | 0.76 | 0.321 |
| SW 900 | 0.86 | 0.802 | 0.638 | 0.57 | 0.476 | 0.568 | 0.716 | 0.555 |  |  |  |  |  | 0.592 | 0.474 | 0.385 | 0.164 | 0.154 | 0.158 |
| SW 1573 | 0.916 | 0.951 | 0.599 |  |  |  |  |  | 0.863 | 1.15 |  | 1.03 | 0.828 | 0.307 | 0.249 | 0.128 | 0.185 | 0.0996 | 0.0857 |
